Measured values: paper PMC11997881, “Comprehensive Characterization of Bruton’s Tyrosine Kinase Inhibitor Specificity, Potency, and Biological Effects: Insights into Covalent and Noncovalent Mechanistic Signatures” (ACS Pharmacology & Translational Science, 2025)
Entries after “also recorded” stand apart in the source; their conditions may differ. Read-outs that look alike come from different tables or passages of the source.

Columns and labels:
[1] = biological target: T1, BMX (Homo sapiens, UniProt P51813); assay: scanMAX binding POC, BMX; settings: 1 μM
T1 sequence (P51813 1-675): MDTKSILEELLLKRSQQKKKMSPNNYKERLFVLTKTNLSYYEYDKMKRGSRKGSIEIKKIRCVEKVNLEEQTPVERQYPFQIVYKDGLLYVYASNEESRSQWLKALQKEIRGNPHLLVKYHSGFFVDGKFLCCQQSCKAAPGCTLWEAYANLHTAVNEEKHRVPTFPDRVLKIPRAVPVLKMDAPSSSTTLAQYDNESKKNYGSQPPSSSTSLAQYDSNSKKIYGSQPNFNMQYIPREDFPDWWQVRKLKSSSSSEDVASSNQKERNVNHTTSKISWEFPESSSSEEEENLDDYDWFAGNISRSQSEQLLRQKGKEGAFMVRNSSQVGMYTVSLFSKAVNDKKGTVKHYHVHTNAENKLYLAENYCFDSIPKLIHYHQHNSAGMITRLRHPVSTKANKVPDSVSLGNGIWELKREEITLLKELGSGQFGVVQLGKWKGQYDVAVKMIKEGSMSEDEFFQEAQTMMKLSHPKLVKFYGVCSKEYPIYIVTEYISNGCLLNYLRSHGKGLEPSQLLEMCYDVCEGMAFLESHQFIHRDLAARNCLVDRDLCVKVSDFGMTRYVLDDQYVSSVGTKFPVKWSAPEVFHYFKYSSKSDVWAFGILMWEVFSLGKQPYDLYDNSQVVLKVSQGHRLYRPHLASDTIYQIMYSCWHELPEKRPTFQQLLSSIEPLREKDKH
Excerpt: (§1) Comprehensive Characterization of Bruton’s Tyrosine Kinase Inhibitor Specificity, Potency, and
(§2) Biological Effects: Insights into Covalent and Non-Covalent Mechanistic Signatures
(§3) Antonia C. Darragh1, Andrew M. Hanna1, Justin H. Lipner2, Alastair J. King2, Nicole B. Servant1, Mirza Jahic1*
(§4) *To whom correspondence should be addressed: Mirza Jahic, e-mail address: Mirza.Jahic@discovery.eurofinsus.com
(§5) Supporting Table S1. Comparison of BTK inhibitor specificity to TEC family members. TEC family members are
(§6) Burton’s tyrosine kinase (BTK), tyrosine kinase expressed in hepatocellular carcinoma (TEC), bone marrow-
(§7) expressed kinase (BMX/ETK), and T cell-expressed kinase (TXK/RLK), and interleukin-2-inducible T cell kinase
(§8) A zero POC signifies that the compound

[2] = biological target: ERBB3 (Homo sapiens, UniProt P21860); assay: scanMAX binding POC, ERBB3; settings: 1 μM
Sequence of ERBB3 (P21860 20-1342): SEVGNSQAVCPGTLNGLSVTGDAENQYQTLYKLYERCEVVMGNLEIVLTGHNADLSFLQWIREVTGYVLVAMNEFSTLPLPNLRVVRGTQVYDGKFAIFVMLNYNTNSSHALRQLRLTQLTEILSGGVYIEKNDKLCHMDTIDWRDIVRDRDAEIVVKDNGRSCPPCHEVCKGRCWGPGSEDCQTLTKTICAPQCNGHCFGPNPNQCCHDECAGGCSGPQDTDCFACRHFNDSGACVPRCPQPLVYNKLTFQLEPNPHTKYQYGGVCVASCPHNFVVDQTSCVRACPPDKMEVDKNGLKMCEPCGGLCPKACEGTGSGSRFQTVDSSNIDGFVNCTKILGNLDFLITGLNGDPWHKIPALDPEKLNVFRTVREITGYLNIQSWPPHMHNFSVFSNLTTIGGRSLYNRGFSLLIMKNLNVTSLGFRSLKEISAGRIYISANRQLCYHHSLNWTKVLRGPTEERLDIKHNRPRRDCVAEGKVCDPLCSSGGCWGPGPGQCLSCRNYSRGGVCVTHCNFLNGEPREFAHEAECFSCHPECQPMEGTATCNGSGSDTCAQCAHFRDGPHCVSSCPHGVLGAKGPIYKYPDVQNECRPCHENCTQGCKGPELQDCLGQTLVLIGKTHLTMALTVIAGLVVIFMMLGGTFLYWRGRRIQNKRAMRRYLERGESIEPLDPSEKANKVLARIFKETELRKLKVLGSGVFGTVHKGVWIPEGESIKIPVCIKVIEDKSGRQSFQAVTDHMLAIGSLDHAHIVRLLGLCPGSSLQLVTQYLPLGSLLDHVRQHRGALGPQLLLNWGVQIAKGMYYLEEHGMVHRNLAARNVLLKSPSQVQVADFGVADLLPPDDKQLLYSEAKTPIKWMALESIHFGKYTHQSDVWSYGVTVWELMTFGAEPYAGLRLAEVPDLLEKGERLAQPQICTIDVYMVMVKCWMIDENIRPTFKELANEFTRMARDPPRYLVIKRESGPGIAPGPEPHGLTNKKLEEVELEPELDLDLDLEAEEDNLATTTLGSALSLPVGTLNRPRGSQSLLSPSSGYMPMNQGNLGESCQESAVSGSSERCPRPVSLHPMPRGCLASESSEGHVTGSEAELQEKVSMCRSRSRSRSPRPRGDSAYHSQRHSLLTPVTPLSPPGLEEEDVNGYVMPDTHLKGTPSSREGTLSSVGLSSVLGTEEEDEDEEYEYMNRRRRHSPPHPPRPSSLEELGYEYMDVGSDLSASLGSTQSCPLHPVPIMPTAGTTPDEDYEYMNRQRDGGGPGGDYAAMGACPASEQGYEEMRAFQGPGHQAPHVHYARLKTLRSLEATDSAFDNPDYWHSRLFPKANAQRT

[3] = biological target: BLK (Homo sapiens, UniProt P51451); assay: scanMAX binding POC, BLK; settings: 1 μM
Sequence of BLK (P51451 whole entry): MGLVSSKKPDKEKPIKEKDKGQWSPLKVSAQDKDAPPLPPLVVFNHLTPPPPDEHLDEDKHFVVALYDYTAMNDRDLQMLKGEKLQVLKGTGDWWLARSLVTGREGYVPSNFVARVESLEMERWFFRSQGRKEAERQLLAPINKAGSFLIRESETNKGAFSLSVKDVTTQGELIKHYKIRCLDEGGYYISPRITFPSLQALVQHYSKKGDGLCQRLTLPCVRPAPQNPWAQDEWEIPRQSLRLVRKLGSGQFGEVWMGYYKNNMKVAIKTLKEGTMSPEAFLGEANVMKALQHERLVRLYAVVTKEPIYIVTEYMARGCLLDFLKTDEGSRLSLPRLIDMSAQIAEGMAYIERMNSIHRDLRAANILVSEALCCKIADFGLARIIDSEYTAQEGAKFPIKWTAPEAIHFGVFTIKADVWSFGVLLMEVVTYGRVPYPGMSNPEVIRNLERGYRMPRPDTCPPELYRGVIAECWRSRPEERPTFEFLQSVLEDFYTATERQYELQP

[4] = biological target: BTK; settings: wild-type BTK; average of literature values; read-out: average published Kd for BTK; cited from earlier work
[5] = biological target: JNK2 (MAPK9) (Homo sapiens, UniProt P45984); assay: scanMAX binding POC, JNK2; settings: 1 μM
Sequence of JNK2 (MAPK9) (P45984 whole entry): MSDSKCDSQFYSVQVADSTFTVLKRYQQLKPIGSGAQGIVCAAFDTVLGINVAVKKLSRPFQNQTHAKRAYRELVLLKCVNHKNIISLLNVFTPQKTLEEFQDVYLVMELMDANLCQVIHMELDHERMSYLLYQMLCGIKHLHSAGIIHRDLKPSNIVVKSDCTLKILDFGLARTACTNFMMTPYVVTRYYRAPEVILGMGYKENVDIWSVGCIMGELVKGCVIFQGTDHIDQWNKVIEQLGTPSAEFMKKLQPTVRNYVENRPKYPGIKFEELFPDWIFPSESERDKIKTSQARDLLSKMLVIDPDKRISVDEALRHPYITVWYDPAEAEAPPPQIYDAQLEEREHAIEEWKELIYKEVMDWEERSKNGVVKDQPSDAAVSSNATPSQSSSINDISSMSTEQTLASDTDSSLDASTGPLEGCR
Description: The compounds were diluted directly into the assays such that the final concentration of DMSO was 0.9%. No enzyme purification steps were performed on the protein extracts before adding them to the reaction mixture, and the protein extracts were diluted 10,000-fold in the final reaction mixture (the final DNA-tagged enzyme concentration was less than 0.1 nM). Binding assay mixtures were incubated at 25 °C with shaking for 1 h. […] The concentration of wild-type or mutant BTK in the eluates was then determined using quantitative PCR. […] Each assay’s affinity ligand concentration on the magnetic beads has been optimized to ensure that the true thermodynamic Kd values for competitor molecules were measured, as described in detail previously99.
Comparison of BTK inhibitor specificity to c-Jun N-terminal kinases (JNK1-3/MAPKP8-10).
a The percent of control (POC) is the percent of kinase that was competed off its control ligand relative to the positive and negative controls at the screening concentration56. A zero POC signifies that the compound

[6] = biological target: T2, BTK (Homo sapiens, UniProt Q06187); assay: scanMAX binding POC, BTK; settings: 1 μM; zero POC = competition comparable to positive control
T2 construct: host or cells: transiently transfected HEK293 cells
T2 sequence (Q06187 whole entry): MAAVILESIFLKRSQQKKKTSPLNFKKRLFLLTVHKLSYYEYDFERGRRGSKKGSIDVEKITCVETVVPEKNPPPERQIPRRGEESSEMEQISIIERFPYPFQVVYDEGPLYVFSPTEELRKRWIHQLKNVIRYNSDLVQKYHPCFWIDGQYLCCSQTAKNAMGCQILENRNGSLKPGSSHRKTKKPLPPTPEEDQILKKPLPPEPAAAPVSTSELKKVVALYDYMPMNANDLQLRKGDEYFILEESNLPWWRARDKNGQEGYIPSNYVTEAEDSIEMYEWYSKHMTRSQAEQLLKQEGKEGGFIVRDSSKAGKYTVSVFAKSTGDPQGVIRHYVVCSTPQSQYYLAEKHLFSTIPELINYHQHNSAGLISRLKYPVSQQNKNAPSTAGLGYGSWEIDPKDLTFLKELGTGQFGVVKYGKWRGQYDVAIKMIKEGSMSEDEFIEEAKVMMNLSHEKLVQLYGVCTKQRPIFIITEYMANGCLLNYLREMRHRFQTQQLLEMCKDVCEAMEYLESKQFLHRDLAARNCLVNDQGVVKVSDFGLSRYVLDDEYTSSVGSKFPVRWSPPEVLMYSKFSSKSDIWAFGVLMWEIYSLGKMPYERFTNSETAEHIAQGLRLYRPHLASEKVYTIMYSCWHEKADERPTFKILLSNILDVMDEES
Excerpt: as §1, §2, §3, §4, §5, §6, §7, §8

[7] = biological target: T3, wild-type BTK (Homo sapiens, UniProt Q06187); assay: KdELECT competition binding, wild-type BTK
T3 construct: made in house; host or cells: transiently transfected HEK293 cells (unpurified extract)
T3 sequence (Q06187 whole entry): as above
Description: Using Eurofins Discovery’s KdELECT Kinase Assay Panel (San Diego, CA), we measured the ATP-independent in vitro binding affinity of the aforementioned BTK inhibitors to wild-type BTK.
(§9) Protein extracts were harvested in M-PER extraction buffer (Pierce Biotechnology, Rockford, IL) supplemented with 150 mM NaCl, 10 mM Dithiothreitol (DTT), Protease Inhibitor Cocktail Complete (Roche Diagnostics GmbH, Mannheim, Germany), and Phosphatase Inhibitor Cocktail Set II (Merck KGaA, Darmstadt, Germany) following the manufacturer’s guidelines. The fusion protein was labeled with a DNA tag containing the NFκB binding site fused to an amplicon for qPCR readout, which was added directly to the expression extract.
(§10) Kds were calculated using a standard dose–response curve fitting of the data using the Hill equation: Response = Background + (Signal – Background)/(1 + (Kd ^Hill Slope/Dose^Hill Slope). The Hill Slope was set to −1. A nonlinear least-square fit using the Levenberg–Marquardt algorithm was employed for curve fitting.

[8] = tested on: BTK; settings: cited from earlier work
[9] = tested on: 468 kinases/kinase domains; settings: scanMAX at 1 μM; for selectivity: category by number of off-targets
Description: The compounds were diluted directly into the assays such that the final concentration of DMSO was 0.9%. No enzyme purification steps were performed on the protein extracts before adding them to the reaction mixture, and the protein extracts were diluted 10,000-fold in the final reaction mixture (the final DNA-tagged enzyme concentration was less than 0.1 nM). Binding assay mixtures were incubated at 25 °C with shaking for 1 h. […] The concentration of wild-type or mutant BTK in the eluates was then determined using quantitative PCR.

[10] = biological target: T4, BTK C481S (Homo sapiens, UniProt Q06187, C481S); assay: KdELECT competition binding, mutant BTK C481S
T4 construct: made in house; host or cells: transiently transfected HEK293 cells (unpurified extract)
T4 sequence (Q06187 whole entry C481S): as the sequence (Q06187 whole entry) above, with C481S counted along it
Description: as §9, §10

[11] = tested on: BTK C481S in TMD8 cells; settings: IC50 measured in TMD8 cells (not in vitro); read-out: average published IC50 for BTK C481S; cited from earlier work
[12] = tested on: 12 human primary cell systems; assay: BioMAP Diversity PLUS Panel; type: cell-based; settings: for number of biological effects (biomarkers modulated) / number of effects in a non-B cell (non-BT) model: 1 μM; for immunomodulatory activities / tissue remodeling activities / inflammation-related activities / hemostasis/angiogenesis-related activities: biomarker level relative to vehicle control: ↑ increase, ↓ decrease; for inflammation-related activities: ↓↑ both; for hemostasis/angiogenesis-related activities: TF in the 3C model; for antiproliferative effects: cell types affected, concentrations (nM) in brackets; for detectable cytotoxicity: concentrations (nM): ibrutinib 3300, 1100, 370, 120, pirtobrutinib and fenebrutinib 1000, 330, 110, 37, spebrutinib 370, 120, 41, 14
Description: BioMAP Diversity PLUS Panel (Eurofins Discovery, St. Charles, MO) is composed of 12 human primary cell cultures or cocultures. The systems and stimuli have been described previously. Adherent cells were added to 96-well plates, allowed to reach confluence, and incubated for 1 h with the indicated BTK inhibitor or assay control, all dissolved in 0.1% DMSO. The cells were then stimulated with cytokines, agonists, or growth factors and cultured for a minimum of 24 h at 37 °C in 5% CO2. Assay controls included DMSO-only (vehicle control), nonstimulated conditions (negative control), and a positive control test agent (colchicine at 1 μM).
Cell proliferation and viability were measured using 0.1% sulforhodamine B (SRB, Sigma–Aldrich) after fixation with 10% TCA, and reading wells at 560 nm for adherent cells, and using alamarBlue reduction (Bio-Rad) for suspension cells. These biomarkers were previously described by Shah and colleagues.
For each biomarker, the value obtained from the BTK inhibitor-treated samples was divided by the average of 8 DMSO-only controls from the same plate, yielding a ratio that was then transformed to the log10 scale. […] For cytotoxicity, we considered a decrease in the SRB readout greater than 50% (<−0.3 on the log10 scale) significant and excluded from the analysis the corresponding concentrations. The acceptance criteria and quality assurance of the BioMAP experiments have been previously described.

[13] = ATP-independent in vitro binding, 25 °C, read-out: Kd for wild-type BTK
[14] = category by Kd for wild-type BTK, read-out: potency for BTK
[15] = wild-type BTK, average of N replicates, each in technical duplicate, read-out: average in-house Kd for BTK
[16] = ATP-independent in vitro binding, 25 °C, read-out: Kd for BTK C481S
[17] = N = 1, technical duplicate, read-out: average in-house Kd for BTK C481S
[18] = category by Kd for BTK C481S, read-out: potency for BTK C481S

BMX binding POC [1] | ERBB3 binding POC [2] | BLK binding POC [3] | JNK2 (MAPK9) POC [5] | BTK binding POC [6] | Kd [7, 13] [nM] | Kd [7, 14] [nM] | Kd [7, 15] [nM] | selectivity [9] | Kd [10, 16] [nM] | Kd [10, 17] [nM] | Kd [10, 18] [nM] | Compound | Kd [4] [nM] | IC50 [8] [nM] | immunomodulatory activities [12] | tissue remodeling activities [12] | inflammation-related activities [12] | hemostasis/angiogenesis-related activities [12] | antiproliferative effects [12] | detectable cytotoxicity [12] | further results
12% of control | 97% of control | 0.85% of control | 100% of control | 0.1% of control | 1.5 | 1 to 10 | 1.5 | moderate (moderate (12–50 off-targets)) | > 1000 | > 1000 | > 1000 | C=CC(=O)Nc1cccc(Oc2nc(Nc3ccc(N4CCN(C)CC4)cc3)nc3ccoc23)c1 [Poseltinib] |  | 3 |  |  |  |  |  |  | Kd for BTK C481S ([10]; ATP-independent in vitro binding, 25 °C): did not demonstrate any binding at the concentrations tested
10% of control | […] | […] | […] | 0% of control |  |  |  |  |  |  |  | C=CC(=O)Nc1cccc(Nc2nc(Nc3ccc(OCCOC)cc3)ncc2F)c1 [Spebrutinib] |  | […] | […] | ↓ PAI-1, Col-I, Col-IV | ↓ sTNFα | none | […] | none | number of biological effects ([12]; 370 nM): […]; number of effects not in the BT model ([12]; 370 nM): […]; tissue remodeling activities ([12]; listed as spebrutinib): decreased the activity of tissue remodeling biomarkers; antiproliferative effects ([12]; listed as spebrutinib): […]

Second part, the compound before the results:

Compound | BMX binding POC [1] | ERBB3 binding POC [2] | BLK binding POC [3] | JNK2 (MAPK9) POC [5] | BTK binding POC [6] | Kd [7, 13] [nM] | Kd [7, 14] [nM] | Kd [7, 15] [nM] | selectivity [9] | Kd [10, 16] [nM] | Kd [10, 17] [nM] | Kd [10, 18] [nM] | Kd [4] [nM] | IC50 [8] [nM] | immunomodulatory activities [12] | tissue remodeling activities [12] | inflammation-related activities [12] | hemostasis/angiogenesis-related activities [12] | antiproliferative effects [12] | detectable cytotoxicity [12] | further results
C=CC(=O)N1CCC[C@@H](c2ccc(C(N)=O)c3[nH]ccc23)C1 [Elsubrutinib] | 20% of control | 74% of control | 15% of control | 91% of control | 0.1% of control | 2.9 | 1 to 10 | 2.9 | high (high (≤11 off-targets)) | 460 | 460 | 100 to 1000 | 3.1 | 180 |  |  |  |  |  |  | fold difference between in-house and published Kd's ([7]; wild-type BTK): 1.1 fold
C[C@H]1CN(C2COC2)CCN1c1ccc(Nc2cc(-c3ccnc(N4CCn5c(cc6c5CC(C)(C)C6)C4=O)c3CO)cn(C)c2=O)nc1 [Fenebrutinib] |  | 78% of control | 60% of control | 100% of control |  |  |  |  |  |  |  |  |  | 2.3 | ↓ sIgG, sIL-2, sIL-6 | none | ↓ sTNFα, IL-1α | ↑ TF | B cells (1000, 330, 110, 37) | none | IC50 [11]: 7.8 nM; number of biological effects (biomarkers modulated) [12]: 8; number of effects in a non-B cell (non-BT) model [12]: 3; hemostasis/angiogenesis-related activities ([12]; listed as fenebrutinib): increase in the production of Tissue Factor (TF)
O=C(c1ccc(Oc2ccccc2)cc1Cl)c1c[nH]c2ncnc(N[C@@H]3CC[C@@H](CO)OC3)c12 [Nemtabrutinib] | 8.5% of control | 0.9% of control | 0.3% of control | 100% of control | 0.6% of control |  |  |  |  |  |  |  | 46 | 0.85 |  |  |  |  |  |  | off-target hits ([9]; POC <35): 97
COc1ccc(F)cc1C(=O)NCc1ccc(-c2nn([C@@H](C)C(F)(F)F)c(N)c2C(N)=O)cc1 [Pirtobrutinib] | 51% of control | 97% of control | 69% of control | 94% of control | 0% of control | 0.81 | < 1 | 0.81 | moderate (moderate (12–50 off-targets)) | 0.89 | 0.89 | < 1 | 0.9 | 3.2 | ↓ sIL-17A, sIL-17F, sIL-2, sIL-6 | none | ↓ sTNFα, IL-1α | none | B cells (1000, 330, 110, 37) | none | IC50 [11]: 4 nM; fold difference between in-house and published Kd's ([7]; wild-type BTK): 1.1 fold; fold difference between in-house and published Kd ([10]; BTK C481S): 2.9 fold; number of biological effects (biomarkers modulated) [12]: 7; number of effects in a non-B cell (non-BT) model [12]: 1
